In patent US9242929B2, “Compounds as diacylglycerol acyltransferase inhibitors” (GlaxoSmithKline Intellectual Property (No.2) Limited, priority 2011, dated 2016):

Molecular target: T1, Human DGAT1 (Homo sapiens, UniProt O75907)
T1 construct: made in house; host or cells: Sf9 insect cells (baculovirus), microsomes
T1 sequence (O75907 1-488): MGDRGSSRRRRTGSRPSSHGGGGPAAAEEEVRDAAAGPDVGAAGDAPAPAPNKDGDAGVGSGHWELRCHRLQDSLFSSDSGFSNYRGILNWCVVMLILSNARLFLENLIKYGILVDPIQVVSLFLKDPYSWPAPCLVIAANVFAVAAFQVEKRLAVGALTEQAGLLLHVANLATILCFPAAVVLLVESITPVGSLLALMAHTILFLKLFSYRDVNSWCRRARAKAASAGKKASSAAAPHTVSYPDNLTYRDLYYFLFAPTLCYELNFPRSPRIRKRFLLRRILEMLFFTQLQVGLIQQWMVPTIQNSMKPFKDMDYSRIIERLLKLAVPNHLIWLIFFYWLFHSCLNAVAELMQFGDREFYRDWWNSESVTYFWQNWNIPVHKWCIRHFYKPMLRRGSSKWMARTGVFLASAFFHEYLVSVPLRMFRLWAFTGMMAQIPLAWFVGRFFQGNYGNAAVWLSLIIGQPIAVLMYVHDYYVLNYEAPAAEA
Assay: human DGAT1 fluorescence (CPM) assay, inhibition of CoA product formation
Assay type: biochemical
Details: human DGAT1 fluorescene (CPM) assay; microsomes from Sf9 insect cells; read-out: hDGAT IC50
Method: Human DGAT1 was expressed in Sf9 insect cells using a baculovirus expression system. Microsomes were prepared and used as enzyme for in vitro inhibition testing in either of two formats measuring production of coenzyme A or tridecanoylglycerol product, respectively. All steps were performed at 21-23° C. All data for DGAT1 inhibition by test compounds were collected under conditions where product formation was linear with reaction time.
An equal volume (10 uL) of 3× enzyme in buffer was added and the components incubated for 30 minutes pre-reaction incubation to allow enzyme and test compounds to attain binding equilibrium. […] Some assays were performed with inclusion of didecanoylglycerol in the pre-reaction incubation of test compound and enzyme. DGAT reactions (30 uL) were initiated upon addition of 10 uL of 3× substrate solution. Final reaction conditions consisted of 20 mM HEPES pH 7.5, 2 mM MgCl2, 1 mM CHAPS, 50 uM didecanoylglycerol, 3 uM decanoyl-CoA, 1 ug/mL microsomal protein, and 1% DMSO. Following a 60 minute reaction incubation, reactions were stopped and CoA product derivatized with 30 uL of buffer containing 10 uM {4-[4-(4-amino-7,7-dimethyl-7H-pyrimido[4,5-b][1,4]oxazin-6-yl)phenyl]cyclohexyl}acetic acid and 50 uM 7-diethylamino-3-(4′-maleimidylphenyl)-4-methylcoumarin (CPM). […] IC50s were fitted using GraphPad Prism to a sigmoidal dose response.

Compound | IC50
O=C(O)CC1(CC(F)(F)F)CCc2cc(-c3ccc(NC(=O)Nc4ccccc4)cc3)ccc2C1O (centres unmarked) [Example 202] | 6.5 nM
O=C(O)CC1(CC(F)(F)F)CCc2cc(-c3ccc(NC(=O)Nc4cccc(Cl)c4)cc3)ccc2C1=O (centres unmarked) [Example 205] | 3.5 nM
O=C(O)CC1(CC(F)(F)F)CCc2cc(-c3cnc(NC(=O)Nc4ccc(F)c(F)c4)cn3)ccc2C1=O (centres unmarked) [Example 215, 2-(6-(5-(3-(3,4-Difluorophenyl)ureido)pyrazin-2-yl)-1-oxo-2-(2,2,2-trifluoroethyl)-1,2,3,4-tetrahydronaphthalen-2-yl)acetic acid] | 1.8 nM
CCC(CC)NC(=O)Nc1cnc(-c2ccc3c(c2)CCC(CC(=O)O)(CC(F)(F)F)C3=O)cn1 (centres unmarked) [Example 219] | 5960 nM
CCc1ccc(NC(=O)Nc2cnc(-c3ccc4c(c3)CCC(CC(=O)O)(CC(F)(F)F)C4=O)cn2)cc1 (centres unmarked) [Example 220] | 0.3 nM
O=C(O)CC1(CC(F)(F)F)CCc2cc(-c3cnc(NC(=O)Nc4cccc(Cl)c4)cn3)ccc2C1=O (centres unmarked) [Example 223] | 0.7 nM
O=C(O)CC1(CC(F)(F)F)CCc2cc(-c3ccc(NC(=O)Nc4cc(Cl)cc(Cl)c4)cc3)ccc2C1=O (centres unmarked) [Example 224] | 2.8 nM
CCc1ccc(NC(=O)Nc2ccc(-c3ccc4c(c3)CCC(CC(=O)O)(CC(F)(F)F)C4=O)cc2)cc1 (centres unmarked) [Example 225] | 1.2 nM
O=C(O)CC1(CC(F)(F)F)CCc2cc(-c3ccc(NC(=O)NC4CCCCC4)cc3)ccc2C1=O (centres unmarked) [Example 226] | 6.1 nM
COC1(CC(=O)O)CCc2cc(-c3ccc(NC(=O)Nc4cccc(Cl)c4)cc3)ccc2C1=O (centres unmarked) [Example 229] | 5.2 nM
O=C(O)CC1(CC(F)(F)F)CCc2cc(-c3cnc(NC(=O)NC4CCC4)cn3)ccc2C1=O (centres unmarked) [Example 230] | 27.5 nM
